Assay results taken from publication PMC12466917, “Evolutionary selection of trimethoprim-resistant dfrA genes in lytic phages affects phage and host fitness during infection” (Science Advances, 2025).

Columns and labels:
[1] = test system: DfrA43; assay: NADPH oxidation followed at […] nm, nonlinear regression; assay type: biochemical; details: 100 uM NADPH; dihydrofolate 5-100 uM; 50 mM Tris-HCl, 50 mM KCl, pH 7.5; ~25 C
[2] = test system: DfrA52; assay: as above; assay type: biochemical, Escherichia phage vB_EcoM_BMB16; details: 100 uM NADPH; dihydrofolate 5-100 uM; 50 mM Tris-HCl, 50 mM KCl, pH 7.5; ~25 C

Compound: Nc1nc2c(c(=O)[nH]1)N=C(CNc1ccc(C(=O)N[C@@H](CCC(=O)O)C(=O)O)cc1)CN2 [dihydrofolate]
- Km [1]: 47.6 ± 21.6 µM
- Km [2]: 167 ± 34.8 µM
